Values quoted from earlier work as cited in patent publication US20050065134A1, “2-aklylidene-19-nor-vitamin D derivatives for the treatment of anorexia or low bone mass in females exhibiting aggressive athletic behavior” (Pfizer Inc, priority 2003, published 2005).
Where two headings read alike, the source gives them in different places.

Test system: intestinal calcium transport
Settings: 7 days, rats

## C=C1[C@H](O)CC(=C/C=C2\CCC[C@]3(C)[C@@H]([C@H](C)CCCC(C)(C)O)CC[C@@H]23)C[C@H]1O [2-Methylene-19-Nor-1,25-(OH)2D3, 1α,25-dihydroxy-2-methylene-19-nor-vitamin D3]
130 and 260 pmol/day
  change in intestinal calcium transport (in words): no intestinal calcium transport activity

## C=C1[C@H](O)CC(=C/C=C2\CCC[C@]3(C)[C@@H]([C@@H](C)CCCC(C)(C)O)CC[C@@H]23)C[C@H]1O [2-Methylene-19-Nor-20S-1,25-(OH)2D3, (20S)-1α,25-dihydroxy-2-methylene-19-nor-vitamin D3]
130 and 260 pmol/day
  change in intestinal calcium transport (in words): no significant change

## C=C1/C(=C\C=C2/CCC[C@]3(C)[C@@H]([C@H](C)CCCC(C)(C)O)CC[C@@H]23)C[C@@H](O)C[C@@H]1O [1,25-(OH)2D3, 1,25-dihydroxyvitamin D3, reference compound]
260 pmol/day, only dose tested
  change in intestinal calcium transport (in words): expected elevation of intestinal calcium transport
